Experimental data taken from US20240216357A1 (SICHUAN HUIYU PHARMACEUTICAL CO., LTD., priority 2021, published 2024).
Structures can show the parent of a compound that is named as a salt.

Legend:
[1] = tested on: NCI-H1417 cells; assay: In vitro cell proliferation detection (CellTiter-Glo, 7 days); format: cell-based; settings: Homo sapiens, 168 h; NCI-H1417 cells, 7 days, CellTiter-Glo; read-out: NCI-H1417 proliferation inhibition IC50
[2] = biological target: LSD1 (Homo sapiens (Human), UniProt O60341); assay: LSD1 enzyme activity detection (HTRF); format: biochemical; settings: HTRF, H3K4me1 substrate; read-out: Inhibition of enzymatic activity of LSD1 IC50

IC50 [1] [nM]	IC50 [2] [nM]	SMILES
31.8	35.7	COc1ccc(-c2c(O)cc(N3CCC(N)CC3)nc2-c2ccc(C#N)c(F)c2)c(F)c1F [Example 35, 4-(6-(4-aminopiperidin-1-yl)-3-(2,3-difluoro-4-methoxyphenyl)-4-hydroxypyridin-2-yl)-2-fluorobenzonitrile]
21.2	35.2	COc1ccc(-c2c(O)cc(N3CCC(N)CC3)nc2-c2ccc(C#N)c(F)c2)c(F)c1 [Example 36, 4-(6-(4-aminopiperidin-1-yl)-3-(2-fluoro-4-methoxyphenyl)-4-hydroxypyridin-2-yl)-2-fluorobenzonitrile hydrochloride]
28.9	12.8 ± 4.6	COc1ccc(-c2c(O)cc(N3CCC(N)CC3)nc2-c2ccc(C#N)c(F)c2)cc1N [Example 44]
290	57.8	N#Cc1ccc(-c2nc(N3CCC(N)CC3)cc(O)c2-c2ccc(C#N)c(F)c2)cc1F [Example 48, 4,4′-(6-(4-aminopiperidin-1-yl)-4-hydroxypyridine-2,3-diyl)bis(2-fluorobenzonitrile)]

Second part, the molecule before the results:

SMILES	IC50 [1] [nM]	IC50 [2] [nM]
COc1ccc(-c2c(O)cc(N3C4CCC3CC(N)C4)nc2-c2ccc(C#N)c(F)c2)cc1O (stereo not drawn) [Example 37, 4-(6-(3-amino-8-azabicyclo[3.2.1]octane-8-yl)-4-hydroxy-3-(3-hydroxy-4-methoxyphenyl)pyridin-2-yl)-2-fluorobenzonitrile]	173	15.1
CC(C)(O)COc1ccc(-c2c(O)cc(N3CCC(N)CC3)nc2-c2ccc(C#N)c(F)c2)cc1F [Example 38, 4-(6-(4-aminopiperine-1-yl)-3-(3-fluoro-4-(2-hydroxy-2-methylpropoxy)phenyl)-4-hydroxypyridin-2-yl)-2-fluorobenzonitrile hydrochloride]	179	57.6
CC(C)(O)Cc1ccc(-c2c(O)cc(N3CCC(N)CC3)nc2-c2ccc(C#N)c(F)c2)cc1F [Example 39, 4-(6-(4-aminopiperidin-1-yl)-3-(3-fluoro-4-(2-hydroxy-2-methylpropyl)phenyl)-4-hydroxypyridin-2-yl)-2-fluorobenzonitrile hydrochloride]	121	21.5 ± 7.6
COc1ccc(-c2c(O)cc(N3CCC(NCC(C)(C)O)CC3)nc2-c2ccc(C#N)c(F)c2)cc1F [Example 45, 2-fluoro-4-(3-(3-fluoro-4-methoxyphenyl)-4-hydroxy-6-(4-((2-hydroxy-2-methylpropyl)amino)piperidin-1-yl)pyridin-2-yl)benzonitrile hydrochloride]	160	184
N#Cc1ccc(-c2nc(N3CCC(N)CC3)cc(O)c2-c2cc(O)c(F)c(F)c2)cc1F [Example 46, 4-(6-(4-aminopiperidin-1-yl)-3-(3,4-difluoro-5-hydroxyphenyl)-4-hydroxypyridin-2-yl)-2-fluorobenzonitrile]	96.4	2 ± 1.4
COc1ccc(-c2c(O)cc(N3CCC(N)CC3)nc2-c2ccc(C#N)c(F)c2)cc1C#N [Example 47, 4-(6-(4-aminopiperidin-1-yl)-3-(3-cyano-4-methoxyphenyl)-4-hydroxypyridin-2-yl)-2-fluorobenzonitrile]	106	2.6 ± 1.3
COCCNC1CCN(c2cc(O)c(-c3ccc(OC)c(F)c3)c(-c3ccc(C#N)c(F)c3)n2)CC1 [Example 49, 2-fluoro-4-(3-(3-fluoro-4-methoxyphenyl)-4-hydroxy-6-(4-((2-methoxyethyl)amino)piperidin-1-yl)pyridin-2-yl)benzonitrile]	228	61.4
COc1ccc(-c2c(O)cc(N3CC[C@@H](N)[C@H](OC)C3)nc2-c2ccc(C#N)c(F)c2)cc1F [Example 51, 4-(6-((3R,4R)-4-amino-3-methoxypiperidin-1-yl)-3-(3-fluoro-4-methoxyphenyl)-4-hydroxypyridin-2-yl)-2-fluorobenzonitrile]	88.2	64 ± 20
